Laboratory results as given in publication PMC10704437, “Sterol-activated amyloid beta fibril formation” (The Journal of Biological Chemistry, 2023).
Read-outs that look alike come from different tables or passages of the source.

Assays:
Aβ42 = target: T1, Aβ42 (Homo sapiens, UniProt P05067); test: Aβ42 nucleation rate versus [Aβ42]^2 (ThT, early lag phase, linear fit); format: biochemical; details: linear least-squares fit of Rate-versus-[Aβ42]^2; free ligand 17 × Kd
T1 construct: Small red spheres mark the Aβ42 peptide C-terminal residue, A42; purchased Sigma-Aldrich Corp
T1 sequence (P05067 672-713 limits assumed): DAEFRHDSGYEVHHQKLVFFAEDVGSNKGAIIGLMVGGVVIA
Description: Reaction 1 of the NEF scheme assumes nucleation is second order in Aβ42 monomer concentration. The reaction order was determined for ligand-bound and free forms of Aβ42 by plotting nucleation rates versus [Aβ42]^n, where n, the reaction order, is 1, 2, or 3—such plots become linear only when n equals the reaction order ([54]). Nucleus formation was monitored via ThT fluorescence in the region of the progress curve where nucleation is rate limiting—the very early stage of the lag phase. Rates were obtained by linear least-squares fitting of progress curves. In all cases, fits were initiated at t0 and deviation from linearity was within experimental error (i.e., χ^2 > 0.95). […] The nucleation rate constants are given by the slopes of the plots (obtained by linear least-squares fitting) and are within the error of those predicted by NEF fitting, see Table 2.
Figure 4 Nucleation reaction order. Reactions were monitored via binding-induced changes in ThT fluorescence (λex = 450 nm, λem = 482 nm). All reactions were performed under the following conditions: ThT (30 μM), DMSO (0.5 % v/v), and K2PO4 (50 mM), pH 7.4, 25 °C ± 2 deg. C. […] A, unliganded Aβ42 nucleation. Titrant concentrations: Aβ42 (1.0, 2.0, 3.0, or 4.0 μM). B, CH•Aβ42 nucleation. […]
The formation of fibril nuclei was monitored via the Aβ-binding induced change in ThT fluorescence (λex = 450 nm, λem = 482 nm, ([42])). […]

Aβ42 monomer = target: T2, Aβ42 monomer (Homo sapiens, UniProt P05067); test: Sterol binding to Aβ42, equilibrium DHE fluorescence titrations
T2 construct: Small red spheres mark the Aβ42 peptide C-terminal residue, A42; purchased Sigma-Aldrich Corp
T2 sequence (P05067 672-713 limits assumed): as above
Description: CH ([27]) and CS ([28]) increase the rate of Aβ aggregation and CH is thought to stabilize fibrils ([29]); yet, the affinities of CH and its metabolites for the Aβ peptide monomer have not been determined. Here, CH and CS affinities for the Aβ42 monomer are established using dehydroergosterol (DHE)—a fluorescent CH analog ([30]) used as a competitive probe to determine CH and CS affinities. Aβ42 monomers were prepared as previously described ([31]) (see Methods). […] Under this condition, Aβ42 essentially quantitatively binds DHE until its concentration exceeds that of DHE, which results in a breakpoint in the titration curve that yields the stoichiometry. The arrow seen descending from the breakpoint indicates a stoichiometry of 1:1, which agrees well with the ∼1:1 CH-metabolite:Aβ stoichiometry estimated from analysis of senile plaques micro-dissected from AD-patient brain tissue ([15]).
Figure 1 Sterol binding to Aβ42at equilibrium.A, DHE affinity for monomeric Aβ4_2. […] Binding was detected via the binding-induced 4.4 (±0.2)-fold increase in DHE fluorescence (λex = 325 nm, λem= 375 nm). Fluorescence intensity, I, is plotted relative to the intensity at zero titrant, I0. Titrations were performed independently in triplicate and the line passing through the data is the least-squares fit to a single-binding-site model. B, Aβ42:DHE stoichiometry. […] C. DHE fluorescence (λex = 325 nm, λem = 375 nm) is plotted versus [Aβ42]/[DHE]. The line descending from the titration breakpoint indicates a stoichiometry of 1:1. C and D, CH and CS affinities. Affinities were determined by competitive binding versus DHE. […] C, was titrated with CH (5.0–500 nM, 0.05–5 × Kd) or CS (5.0–500 nM, 0.15–[…] × Kd). Binding was monitored via the decrease in DHE fluorescence (λex = 325, λem = 375) caused by DHE displacement from Aβ42. Controls ensured that <2.0% of Aβ42 oligomerized during the measurement. Titrations were performed in triplicate and averaged. The solid lines through the data represent least-squares fits to a competitive single-binding-site model. C and D, insets highlight the behavior of the titration over ligand concentrations that span their reported CMCs (indicated by arrows). […]
DHE/Aβ42 binding interactions were monitored via the binding-induced 4.4-fold change in DHE fluorescence (λex = 325 nm, λem= 375 nm). […]
The affinities of CH and CS for Aβ42 were determined in competitive binding studies versus DHE. Binding was detected via the fluorescence decrease (λex= 325 nm, λem = 375 nm) caused by DHE displacement. […] Imax = (fraction DHE-bound to peptide at zero competitive ligands)/4.4 — the fold fluorescence change associated with DHE dissociation, see Figure 1A.

Row | Compound | Nucleation rate constant, linear model (Aβ42) | Kd (Aβ42 monomer; determined in DHE competition studies, DHE 10 nM, Aβ42 20 nM, K2PO4 50 mM, pH 7.4, 25 °C, read-out: Kd) [nM] | Kd (Aβ42 monomer) [nM] | enhanced affinity of CS over CH for Aβ42 (Aβ42 monomer; ratio of Kd values) [fold]
1 | CC(C)CCC[C@@H](C)[C@H]1CC[C@H]2[C@@H]3CC=C4C[C@@H](O)CC[C@]4(C)[C@H]3CC[C@]12C [CH, cholesterol] | 7.3 (0.1) × 10^−14 nM^−1 s^−1 | 120 |  | 
2 | CC(C)CCC[C@@H](C)[C@H]1CC[C@H]2[C@@H]3CC=C4C[C@@H](OS(=O)(=O)O)CC[C@]4(C)[C@H]3CC[C@]12C [CS, cholesterol 3-sulfate] | 1.5 (0.1) × 10^−11 nM^−1 s^−1 |  | 36 | 3.4
